# Legend:
# Type in all cases: protein assay
# [1] = target: T1, Alpha-1,2-mannosidase (BT_3990) (Bacteroides thetaiotaomicron) (UniProt Q8A0N1); experiment: Activity of Bacteroides thetaiotaomicron GH92 alpha-mannosidase 3990 assessed as recovery of enzyme activity at 1 mM in presence of 7 mM Mg(2+) ions and in presence of 5 mM EDTA in 100 mM pH 7 MOPS buffer relative to enzyme activity in presence of calcium
# T1 sequence (whole entry): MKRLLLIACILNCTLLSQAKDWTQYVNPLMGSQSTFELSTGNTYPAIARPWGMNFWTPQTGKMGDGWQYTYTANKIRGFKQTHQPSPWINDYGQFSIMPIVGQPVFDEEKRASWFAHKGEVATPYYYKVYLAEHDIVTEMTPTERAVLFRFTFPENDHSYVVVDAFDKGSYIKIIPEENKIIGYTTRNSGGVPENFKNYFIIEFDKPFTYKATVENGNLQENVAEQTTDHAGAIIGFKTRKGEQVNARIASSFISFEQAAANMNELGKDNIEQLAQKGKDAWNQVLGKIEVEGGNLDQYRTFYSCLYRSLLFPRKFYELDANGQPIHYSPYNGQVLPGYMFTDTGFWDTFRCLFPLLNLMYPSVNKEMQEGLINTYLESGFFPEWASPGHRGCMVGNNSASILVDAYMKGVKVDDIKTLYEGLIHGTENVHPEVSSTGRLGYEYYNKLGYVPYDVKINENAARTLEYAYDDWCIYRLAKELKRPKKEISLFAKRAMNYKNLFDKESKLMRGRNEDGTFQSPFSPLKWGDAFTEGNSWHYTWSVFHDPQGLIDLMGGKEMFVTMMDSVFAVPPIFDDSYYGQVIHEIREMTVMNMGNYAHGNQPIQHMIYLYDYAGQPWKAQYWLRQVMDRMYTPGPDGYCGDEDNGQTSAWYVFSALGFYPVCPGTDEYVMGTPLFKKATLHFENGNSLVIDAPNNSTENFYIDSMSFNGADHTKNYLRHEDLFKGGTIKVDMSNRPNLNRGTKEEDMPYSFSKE
# [2] = target: T1, Alpha-1,2-mannosidase (BT_3990) (Bacteroides thetaiotaomicron); experiment: Activity of Bacteroides thetaiotaomicron GH92 alpha-mannosidase 3990 assessed as recovery of enzyme activity at 1 mM in presence of 7 mM Zn(2+) ions and in presence of 5 mM EDTA in 100 mM pH 7 MOPS buffer relative to enzyme activity in presence of calcium
# [3] = target: T1, Alpha-1,2-mannosidase (BT_3990) (Bacteroides thetaiotaomicron); experiment: Activity of Bacteroides thetaiotaomicron GH92 alpha-mannosidase 3990 assessed as recovery of enzyme activity at 1 mM in presence of 7 mM Ca(2+) ions and in presence of 5 mM EGTA in 100 mM pH 7 MOPS buffer relative to enzyme activity in presence of calcium
# [4] = target: T2, Alpha-1,2-mannosidase (BT_2199) (Bacteroides thetaiotaomicron) (UniProt Q8A5N9); experiment: Activity of Bacteroides thetaiotaomicron GH92 alpha-mannosidase 2199 assessed as recovery of enzyme activity at 1 mM in presence of 7 mM Mg(2+) ions and in presence of 5 mM EDTA in 100 mM pH 7 MOPS buffer relative to enzyme activity in presence of calcium
# T2 sequence (whole entry): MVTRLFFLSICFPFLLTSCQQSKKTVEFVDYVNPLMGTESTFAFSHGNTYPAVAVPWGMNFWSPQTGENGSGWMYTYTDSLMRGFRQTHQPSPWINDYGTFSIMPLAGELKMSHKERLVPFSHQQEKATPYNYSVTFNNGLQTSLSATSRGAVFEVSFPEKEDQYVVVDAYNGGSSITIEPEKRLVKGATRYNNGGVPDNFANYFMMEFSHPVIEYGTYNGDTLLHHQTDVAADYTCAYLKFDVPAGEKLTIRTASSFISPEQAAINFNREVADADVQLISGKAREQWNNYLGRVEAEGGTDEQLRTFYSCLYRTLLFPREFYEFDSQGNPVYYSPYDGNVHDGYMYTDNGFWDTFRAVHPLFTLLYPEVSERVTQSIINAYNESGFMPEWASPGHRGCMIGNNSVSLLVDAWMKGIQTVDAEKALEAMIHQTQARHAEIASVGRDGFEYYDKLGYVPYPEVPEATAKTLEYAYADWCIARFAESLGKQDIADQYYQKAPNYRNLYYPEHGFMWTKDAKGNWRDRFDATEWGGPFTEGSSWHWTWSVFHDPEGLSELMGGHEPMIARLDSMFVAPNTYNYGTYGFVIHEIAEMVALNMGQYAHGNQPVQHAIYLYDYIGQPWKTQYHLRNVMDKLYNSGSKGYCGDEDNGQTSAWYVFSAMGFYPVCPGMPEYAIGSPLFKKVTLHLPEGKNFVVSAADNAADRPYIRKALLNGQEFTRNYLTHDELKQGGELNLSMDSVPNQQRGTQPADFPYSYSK
# [5] = target: T1, Alpha-1,2-mannosidase (BT_3990) (Bacteroides thetaiotaomicron); experiment: Activity of Bacteroides thetaiotaomicron GH92 alpha-mannosidase 3990 assessed as recovery of enzyme activity at 1 mM in presence of 7 mM Zn(2+) ions and in presence of 5 mM EGTA in 100 mM pH 7 MOPS buffer relative to enzyme activity in presence of calcium
# [6] = target: T2, Alpha-1,2-mannosidase (BT_2199) (Bacteroides thetaiotaomicron); experiment: Activity of Bacteroides thetaiotaomicron GH92 alpha-mannosidase 2199 assessed as recovery of enzyme activity at 1 mM in presence of 7 mM V(3+) ions and in presence of 5 mM EGTA in 100 mM pH 7 MOPS buffer relative to enzyme activity in presence of calcium
# [7] = target: T1, Alpha-1,2-mannosidase (BT_3990) (Bacteroides thetaiotaomicron); experiment: Activity of Bacteroides thetaiotaomicron GH92 alpha-mannosidase 3990 assessed as recovery of enzyme activity at 1 mM in presence of 7 mM V(3+) ions and in presence of 5 mM EGTA in 100 mM pH 7 MOPS buffer relative to enzyme activity in presence of calcium
# [8] = target: T1, Alpha-1,2-mannosidase (BT_3990) (Bacteroides thetaiotaomicron); experiment: Activity of Bacteroides thetaiotaomicron GH92 alpha-mannosidase 3990 assessed as recovery of enzyme activity at 1 mM in presence of 7 mM Be(2+) ions and in presence of 5 mM EDTA in 100 mM pH 7 MOPS buffer relative to enzyme activity in presence of calcium
# [9] = target: T2, Alpha-1,2-mannosidase (BT_2199) (Bacteroides thetaiotaomicron); experiment: Activity of Bacteroides thetaiotaomicron GH92 alpha-mannosidase 2199 assessed as recovery of enzyme activity at 1 mM relative to enzyme activity in presence of calcium
# [10] = target: T1, Alpha-1,2-mannosidase (BT_3990) (Bacteroides thetaiotaomicron); experiment: Activity of Bacteroides thetaiotaomicron GH92 alpha-mannosidase 3990 assessed as recovery of enzyme activity at 1 mM relative to enzyme activity in presence of calcium
smiles,measurement,setting,value
O=[N+]([O-])c1ccc(O[C@H]2O[C@H](CO)[C@@H](O)[C@H](O)[C@@H]2O)cc1,Activity,[1],0%
same,Activity,[2],0%
same,Activity,[3],100%
same,Activity,[4],0%
same,Activity,[5],0%
same,Activity,[6],0%
same,Activity,[7],0%
same,Activity,[8],0%
OC[C@H]1O[C@H](OC[C@H]2O[C@H](O)[C@@H](O)[C@@H](O)[C@@H]2O)[C@@H](O)[C@@H](O)[C@@H]1O,Activity,[9],63%
same,Activity,[10],65%
